Laboratory results published in patent US20110039763A1, “TARGETED ANTIMICROBIAL MOIETIES” (C3 JIAN, INC., priority 2009, published 2011).
Entries after “also recorded” stand apart in the source; their conditions may differ. Ends that are not written are not given here.

Experiments:
microorganisms [1] = assay: Targeting peptide binding to target microorganisms (Tables 3, 10, 12); settings: microorganism(s) the targeting peptide binds; binding in aqueous buffers varied with peptide solubility, preferably 1x PBS
microorganisms [2] = assay: Morphology, biofilm and growth disrupting peptides (Table 5); format: cell-based; set-up: key: A: Peptide aggregates; B: Less hyphal formation; Clumps; Diffuse clumps and small polyps; F: Diffuse growth; H: Thin; I: Growth inhibition; Microcolony formation; Rippled; Small polyps; Thick; W: Halo formation on top, microlonies on bottom
Text: In certain embodiments peptides that induce alterations in phenotype or other biological activities can also be used as antimicrobial effector moieties.

microorganisms [3] = assay: Peptide activities: targeting/binding, antimicrobial, growth or phenotype altering (Tables 7, 8); format: cell-based; settings: peptides having multiple activities

| Substance | Target(s) (microorganisms [1]) | Organism, effect (microorganisms [2]; E. coli) | Organism, effect (microorganisms [2]; MRSA) | Organism, effect (microorganisms [2]; S. epidermidis) | Organism, effect (microorganisms [2]; S. pneumoniae) | Activities (microorganisms [3]) | Organism, effect (microorganisms [2]; C. jejuni) | Organism, effect (microorganisms [2]; E. faecalis) | Organism, effect (microorganisms [2]; C. albicans) | Organism, effect (microorganisms [2]; C. jeikeium) | Organism, effect (microorganisms [2]; B. subtilis) |
| --- | --- | --- | --- | --- | --- | --- | --- | --- | --- | --- | --- |
| PF-453: peptide having multiple activities (IIQDIAHAFGY; Peptide with targeting and/or antimicrobial activity) | M. luteus; also recorded: E. coli; also recorded: P. aeruginosa; also recorded: S. pneumoniae; also recorded: E. faecalis; also recorded: C. jeikeium; also recorded: C. jejuni | E. coli (C) | MRSA (C) | S. epidermidis (C) | S. pneumoniae (C) | G B | – | – | – | – | – |
| PF-456: peptide having multiple activities (TCVKPRTIN; Peptide with targeting and/or antimicrobial activity) | C. albicans and MRSA and E. faecalis and C. jeikeium and C. jejuni | – | – | – | – | G B | C. jejuni (A) | E. faecalis (A) | – | – | – |
| PF-457: peptide having multiple activities (INKYHHIA; Peptide with targeting and/or antimicrobial activity) | C. albicans; also recorded: S. pneumoniae; also recorded: E. faecalis; also recorded: C. jeikeium | – | – | – | S. pneumoniae (M) | G B | – | – | – | – | – |
| PF-459: peptide having multiple activities (EKRMSFNENQSHRPLL; Peptide with targeting and/or antimicrobial activity) | P. aeruginosa | – | – | – | S. pneumoniae (H) | G B | – | – | – | – | – |
| PF-462: peptide having multiple activities (KNKTDTL; Peptide with targeting and/or antimicrobial activity) | E. faecalis; also recorded: C. jeikeium | – | – | – | S. pneumoniae (H) | G B | – | – | – | – | – |
| PF-464: peptide having multiple activities (VDMVNRFLGN; Peptide with targeting and/or antimicrobial activity) | S. epidermidis and C. albicans and MRSA and S. pneumoniae and E. faecalis and C. jeikeium and C. jejuni | – | – | – | S. pneumoniae (S) | G B | – | – | – | – | – |
| PF-466: peptide having multiple activities (VRKSDQ; Peptide with targeting and/or antimicrobial activity) | MRSA and C. jeikeium and C. jejuni | – | – | – | S. pneumoniae (H) | G B | – | – | – | – | – |
| PF-467: peptide having multiple activities (YYKDYFKEI; Peptide with targeting and/or antimicrobial activity) | MRSA and E. faecalis and C. jeikeium and C. jejuni | – | – | – | S. pneumoniae (H) | G B | – | – | – | – | – |
| PF-470: peptide having multiple activities (PYSDSYATRPHWEQHRAR; Peptide with targeting and/or antimicrobial activity) | M. luteus and E. coli and MRSA and E. faecalis and C. jeikeium and C. jejuni | – | – | – | – | G B | C. jejuni (A) | E. faecalis (A) | – | – | – |
| PF-476: peptide having multiple activities (WADAQYKLCENCSE; Peptide with targeting and/or antimicrobial activity) | M. luteus; also recorded: P. mirabilis; also recorded: C. albicans; also recorded: S. pneumoniae; also recorded: E. faecalis; also recorded: C. jeikeium; also recorded: C. jejuni | – | – | – | S. pneumoniae (H) | G B | – | – | – | – | – |
| PF-484: peptide having multiple activities (HKKDIRKQVFKN; Peptide with targeting and/or antimicrobial activity) | S. epidermidis; also recorded: M. luteus; also recorded: P. mirabilis; also recorded: E. coli; also recorded: E. faecalis; also recorded: C. jeikeium; also recorded: C. jejuni | – | – | – | – | G B | – | E. faecalis (A) | – | – | – |
| PF-513: peptide having multiple activities (SNGVGLGVGIGSGIRF-NH2) | C. albicans | – | – | – | S. pneumoniae (M) | G B | – | – | – | – | – |
| PF-514: peptide having multiple activities (QRFYKLFYHIDLTNEQALKLFQVK; Peptide with targeting and/or antimicrobial activity) | S. epidermidis and E. coli and P. aeruginosa and C. albicans and MRSA and S. pneumoniae and E. faecalis and C. jeikeium | E. coli (R) | – | S. epidermidis (C) | S. pneumoniae (M) | G B | – | E. faecalis (C) | – | – | – |
| PF-515: peptide having multiple activities (DKSTQDKDIKQAKLLAQELGL-NH2) | S. epidermidis; also recorded: C. albicans; also recorded: S. pneumoniae; also recorded: C. jeikeium | – | – | – | S. pneumoniae (H) | G B | – | – | – | – | – |
| PF-517: peptide having multiple activities (VKPTMTASLISTVC; Peptide with targeting and/or antimicrobial activity) | C. jejuni | – | – | – | S. pneumoniae (M) | G B | – | – | – | – | – |
| PF-518: peptide having multiple activities (SFYSKYSRYIDNLAGAIFLFF; Peptide with targeting and/or antimicrobial activity) | S. epidermidis and E. coli and P. aeruginosa and C. albicans and MRSA and S. pneumoniae and E. faecalis | E. coli (R) | MRSA (C) | S. epidermidis (C) | S. pneumoniae (M) | G B | – | E. faecalis (C) | – | – | – |
| PF-519: peptide having multiple activities (YLVYSGVLATAAAF-NH2) | M. luteus; also recorded: E. faecalis; also recorded: C. jeikeium | E. coli (R) | MRSA (C) | – | S. pneumoniae (S) | G B | – | E. faecalis (C) | – | – | – |
| PF-528: peptide having multiple activities (LVDVVVLIRRHLPKSCS-NH2) | S. epidermidis and P. aeruginosa and C. albicans and MRSA and S. pneumoniae and E. faecalis | E. coli (H) | MRSA (H) | S. epidermidis (H) | S. pneumoniae (R) | G B | – | – | C. albicans (C) | – | – |
| PF-540: peptide having multiple activities (KSILILIKVIFIGQTTIIL; Peptide with targeting and/or antimicrobial activity) | C. albicans | E. coli (R) | MRSA (H) | S. epidermidis (H) | S. pneumoniae (R) | G B | – | – | – | – | – |
| PF-542: peptide having multiple activities (KKDNPSLNDQDKNAVLNLLALAK; Peptide with targeting and/or antimicrobial activity) | C. jeikeium | – | – | – | S. pneumoniae (H) | G B | – | – | – | – | – |
| PF-546: peptide having multiple activities (PIIAPTIKTQIQ; Peptide with targeting and/or antimicrobial activity) | S. epidermidis; also recorded: E. coli; also recorded: C. albicans; also recorded: S. pneumoniae; also recorded: E. faecalis; also recorded: C. jeikeium | E. coli (R) | MRSA (D) | S. epidermidis (D) | S. pneumoniae (D) | G B | – | E. faecalis (D) | – | C. jeikeium (D) | – |
| PF-549: peptide having multiple activities (TGIGPIARPIEHGLDS; Peptide with targeting and/or antimicrobial activity) | E. coli; also recorded: C. albicans; also recorded: S. pneumoniae; also recorded: C. jeikeium | – | MRSA (C) | – | – | G B | – | – | – | – | B. subtilis (D) |
| PF-550: peptide having multiple activities (STENGWQEFESYADVGVDPRRYVPL; Peptide with targeting and/or antimicrobial activity) | S. pneumoniae | – | – | – | – | G B | – | – | – | – | B. subtilis (D) |
| PF-551: peptide having multiple activities (QVKEKRREIELQFRDAEKKLEASVQAE; Peptide with targeting and/or antimicrobial activity) | S. pneumoniae | – | MRSA (C) | – | – | G B | – | – | – | – | – |
| PF-552: peptide having multiple activities (ELDKADAALGPAKNLAPLDVINRS; Peptide with targeting and/or antimicrobial activity) | S. pneumoniae | – | – | – | – | G B | – | – | – | – | B. subtilis (D) |
| PF-553: peptide having multiple activities (LTIVGNALQQKNQKLLLNQKKITSLG; Peptide with targeting and/or antimicrobial activity) | S. epidermidis and E. coli and P. aeruginosa and C. albicans and MRSA and S. pneumoniae and C. jeikeium | – | MRSA (M) | – | S. pneumoniae (R) | G B | – | – | – | C. jeikeium (R) | B. subtilis (D) |
